Source: patent US12391664B2, “GluN2C/D subunit selective antagonists of the N-methyl-D-aspartate receptor” (Emory University, priority 2018, dated 2025)
Blank lines part the entries; values can stand above or below the molecule they belong to.

What was measured:
[1] = biological target: T1, recombinant rat GluN1/GluN2D (Rattus norvegicus, UniProt Q62645); assay: Two-electrode voltage-clamp recordings in Xenopus laevis oocytes, GluN2D; type: cell-based; conditions: oocytes, 100 μM glutamate and 30 μM glycine
T1 construct: expressed in transfected cells; host or cells: Xenopus laevis oocytes injected with cRNA (GluN1:GluN2 ratio 1:2)
Outline: (§1)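 Oocytes injected with rat GluN1/GluN2 cRNA (1:2), held 2–5 days at 15–17 °C, clamped at −40 mV in Ba2+-containing recording solution, pH 7.4, 23 °C. Compounds applied (up to 100 μM) with 100 μM glutamate plus 30 μM glycine. IC50 and Hill slope from concentration-response fits of averaged current inhibition.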

[2] = biological target: T2, recombinant rat GluN1/GluN2A (Rattus norvegicus, UniProt Q00959); assay: Two-electrode voltage-clamp recordings in Xenopus laevis oocytes, GluN2A; type: cell-based; conditions: oocytes, 100 μM glutamate and 30 μM glycine
T2 construct: expressed in transfected cells; host or cells: Xenopus laevis oocytes injected with cRNA (GluN1:GluN2 ratio 1:2)
T2 sequence (Q00959 23-1464, other chains not shown): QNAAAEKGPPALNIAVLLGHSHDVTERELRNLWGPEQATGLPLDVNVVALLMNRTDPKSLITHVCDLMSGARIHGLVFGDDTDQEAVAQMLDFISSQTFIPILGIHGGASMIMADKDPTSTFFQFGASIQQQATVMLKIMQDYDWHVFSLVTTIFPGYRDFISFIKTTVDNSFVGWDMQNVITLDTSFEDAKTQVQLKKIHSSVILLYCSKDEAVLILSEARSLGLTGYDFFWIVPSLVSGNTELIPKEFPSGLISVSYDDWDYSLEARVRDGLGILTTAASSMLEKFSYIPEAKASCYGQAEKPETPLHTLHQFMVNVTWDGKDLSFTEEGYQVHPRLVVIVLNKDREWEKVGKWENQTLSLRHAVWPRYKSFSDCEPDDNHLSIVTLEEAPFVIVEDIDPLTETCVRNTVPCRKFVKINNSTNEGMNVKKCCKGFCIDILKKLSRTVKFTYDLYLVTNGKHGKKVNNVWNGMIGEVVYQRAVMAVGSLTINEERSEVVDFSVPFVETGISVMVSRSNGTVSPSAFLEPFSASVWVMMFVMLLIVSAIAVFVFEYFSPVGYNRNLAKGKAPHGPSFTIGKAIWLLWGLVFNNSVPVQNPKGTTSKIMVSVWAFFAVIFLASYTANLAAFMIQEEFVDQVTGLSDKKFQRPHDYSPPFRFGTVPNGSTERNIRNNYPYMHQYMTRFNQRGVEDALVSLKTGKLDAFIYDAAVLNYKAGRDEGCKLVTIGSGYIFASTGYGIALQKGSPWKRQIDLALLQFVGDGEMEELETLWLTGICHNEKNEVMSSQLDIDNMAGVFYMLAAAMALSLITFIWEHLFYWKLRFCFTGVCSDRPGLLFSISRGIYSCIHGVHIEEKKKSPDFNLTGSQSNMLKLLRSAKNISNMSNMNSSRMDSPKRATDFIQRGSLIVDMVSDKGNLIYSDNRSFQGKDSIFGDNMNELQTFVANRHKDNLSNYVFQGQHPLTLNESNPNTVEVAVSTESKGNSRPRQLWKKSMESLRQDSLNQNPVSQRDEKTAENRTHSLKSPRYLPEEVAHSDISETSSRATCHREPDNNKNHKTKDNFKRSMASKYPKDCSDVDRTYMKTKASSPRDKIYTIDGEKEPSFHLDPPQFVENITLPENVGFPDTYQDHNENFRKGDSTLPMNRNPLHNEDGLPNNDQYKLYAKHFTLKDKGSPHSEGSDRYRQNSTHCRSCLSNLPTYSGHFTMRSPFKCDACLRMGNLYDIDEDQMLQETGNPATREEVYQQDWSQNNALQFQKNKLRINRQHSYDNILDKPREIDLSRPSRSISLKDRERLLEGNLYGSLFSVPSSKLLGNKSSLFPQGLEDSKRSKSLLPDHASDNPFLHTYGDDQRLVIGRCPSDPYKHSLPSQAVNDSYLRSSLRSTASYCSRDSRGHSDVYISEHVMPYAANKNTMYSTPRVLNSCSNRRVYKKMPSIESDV
Outline: as §1

[3] = biological target: T3, recombinant rat GluN1/GluN2C (Rattus norvegicus, UniProt Q00961); assay: Two-electrode voltage-clamp recordings in Xenopus laevis oocytes, GluN2C; type: cell-based; conditions: oocytes, 100 μM glutamate and 30 μM glycine
T3 construct: expressed in transfected cells; host or cells: Xenopus laevis oocytes injected with cRNA (GluN1:GluN2 ratio 1:2)
T3 sequence (Q00961 20-1237, other chains not shown): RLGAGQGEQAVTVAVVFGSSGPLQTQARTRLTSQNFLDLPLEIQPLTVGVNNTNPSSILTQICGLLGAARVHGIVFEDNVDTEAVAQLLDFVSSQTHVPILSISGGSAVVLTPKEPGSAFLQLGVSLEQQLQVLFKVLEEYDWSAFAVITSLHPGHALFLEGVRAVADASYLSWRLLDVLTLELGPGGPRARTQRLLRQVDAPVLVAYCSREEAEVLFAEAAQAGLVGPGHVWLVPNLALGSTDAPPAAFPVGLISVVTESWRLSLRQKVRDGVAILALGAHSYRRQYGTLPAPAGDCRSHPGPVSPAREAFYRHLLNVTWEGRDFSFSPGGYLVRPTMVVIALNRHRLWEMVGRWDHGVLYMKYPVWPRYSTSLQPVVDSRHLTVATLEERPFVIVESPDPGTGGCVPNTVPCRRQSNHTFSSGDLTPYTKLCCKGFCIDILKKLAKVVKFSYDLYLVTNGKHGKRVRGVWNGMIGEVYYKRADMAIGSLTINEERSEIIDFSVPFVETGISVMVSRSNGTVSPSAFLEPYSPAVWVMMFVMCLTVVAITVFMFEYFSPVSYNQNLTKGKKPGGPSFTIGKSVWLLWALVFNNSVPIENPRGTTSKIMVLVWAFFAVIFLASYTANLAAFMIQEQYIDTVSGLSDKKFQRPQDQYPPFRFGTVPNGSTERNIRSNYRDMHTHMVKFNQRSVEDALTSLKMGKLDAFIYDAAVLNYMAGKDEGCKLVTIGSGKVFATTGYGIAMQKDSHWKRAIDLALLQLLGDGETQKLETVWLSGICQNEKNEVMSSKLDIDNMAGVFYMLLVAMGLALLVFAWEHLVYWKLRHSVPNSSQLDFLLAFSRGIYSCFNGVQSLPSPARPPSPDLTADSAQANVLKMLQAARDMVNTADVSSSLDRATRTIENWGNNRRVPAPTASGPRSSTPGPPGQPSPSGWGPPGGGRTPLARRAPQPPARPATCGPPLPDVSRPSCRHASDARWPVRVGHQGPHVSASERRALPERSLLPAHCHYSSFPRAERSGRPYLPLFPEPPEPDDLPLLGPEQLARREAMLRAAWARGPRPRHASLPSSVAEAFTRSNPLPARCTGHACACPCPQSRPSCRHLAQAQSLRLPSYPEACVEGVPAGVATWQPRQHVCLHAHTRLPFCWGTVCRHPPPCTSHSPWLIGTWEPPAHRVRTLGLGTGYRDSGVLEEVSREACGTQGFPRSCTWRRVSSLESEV
Outline: as §1

[4] = system: recombinant GluN2A-D subunits; assay: Two-electrode voltage-clamp recordings, statements on all receptors; type: cell-based, rat
Experimental: All target compounds were evaluated for activity by the Traynelis laboratory at Emory University using two-electrode voltage-clamp recordings performed in Xenopus laevis oocytes expressing recombinant GluN2A-D subunits (Table 1). […] Two ester compounds 997-65 and 997-66 also performed no inhibition at GluN2A to GluN2D receptors. […] Consequently, for the compounds that Acker et al. already published, it was necessary to increase the concentration to 100 μM when collecting data for a concentration effect curve. […] Therefore, under this condition, we can only conclude that compound 997-67 remained potent at GluN2C/D-containing receptors, but its selectivity over GluN2A- and GluN2B-containing receptors could not be compared to 997-57. […] Finally, replacing the carboxylic acid to the bio-isostere amide yielded compounds 997-96 and 997-115, which dropped the potency 2- to 4-fold in comparison to their corresponding acids 997-74 and 997-114.
Two-electrode voltage-clamp recordings were performed in Xenopus laevis oocytes that were injected with mRNA to express recombinant rat GluN1/GluN2A, GluN1/GluN2B, GluN1/GluN2C, and GluN1/GluN2D. The recordings using unfertilized oocytes from Xenopus laevis were permitted by Emory University Institutional Animal Care and Use Committee (IACUC). An automatic injector (Nanoject II, Drummond Scientific) was used for cRNA injection using the pipettes filled with mineral oil. The cRNA that transcribed in vitro via the mMessage Machine kit (Ambion) was diluted with nuclease-free water, and then injected at GluN1/GluN2 with a ratio of 1:2. The oocytes were stored in Barth's solution that contained 88 mM NaCl, 5.0 mM Tris-HCl, 2.4 mM NaHCO3, 1.0 mM KCl, 0.84 mM MgSO4, 0.41 mM CaCl2, 0.33 mM Ca(NO3)2, 0.1 mg/ml gentamycin sulfate, 1.0 U/ml penicillin, and 1 μg/ml streptomycin at a pH of 7.4 and temperatures of 15-17° C. for two to five days before the two-electrode voltage-clamp recordings. When recording, the oocytes were placed in a perfusion chamber and continually washed with the recording solution comprised of 90 mM NaCl, 1.0 mM KCl, 0.50 mM BaCl2, 0.005 mM EDTA, and 10 mM HEPES at a pH of 7.4 and a temperature of 23° C. Glass electrodes with a tip resistance of 0.5 to 2.5 MΩ were obtained from thin-walled glass capillary tubes. Voltage electrodes and current electrodes were filled with 0.3 M and 3.0 M KCl, respectively. The recordings were executed with the oocytes membrane potential holding at −40 m V by an OC-725 amplifier (Warner Instrument Co). All compounds were dissolved in dimethyl sulfoxide (DMSO) as 20 mM stock solutions and future diluted to reach the desired concentration (0.05-0.5% (vol/vol) DMSO) in recording solution comprised of 30 μM glycine and 100 μM glutamate. Each compound was recorded 3-7 times in the least 4 oocytes from at least 2 different Xenopus laevis.
To evaluate the inhibition of compounds, the concentration-response curve was fitted with the average two-electrode voltage-clamp recording results with the equation
[formula] • where IC50 is the concentration of compounds that inhibit half maximal of the current response and N is the Hill slope.

[5] = biological target: T4, recombinant rat GluN1/GluN2B (Rattus norvegicus, UniProt Q00960); assay: Two-electrode voltage-clamp recordings in Xenopus laevis oocytes, GluN2B; type: cell-based; conditions: oocytes, 100 μM glutamate and 30 μM glycine
T4 construct: expressed in transfected cells; host or cells: Xenopus laevis oocytes injected with cRNA (GluN1:GluN2 ratio 1:2)
T4 sequence (Q00960 27-1482, other chains not shown): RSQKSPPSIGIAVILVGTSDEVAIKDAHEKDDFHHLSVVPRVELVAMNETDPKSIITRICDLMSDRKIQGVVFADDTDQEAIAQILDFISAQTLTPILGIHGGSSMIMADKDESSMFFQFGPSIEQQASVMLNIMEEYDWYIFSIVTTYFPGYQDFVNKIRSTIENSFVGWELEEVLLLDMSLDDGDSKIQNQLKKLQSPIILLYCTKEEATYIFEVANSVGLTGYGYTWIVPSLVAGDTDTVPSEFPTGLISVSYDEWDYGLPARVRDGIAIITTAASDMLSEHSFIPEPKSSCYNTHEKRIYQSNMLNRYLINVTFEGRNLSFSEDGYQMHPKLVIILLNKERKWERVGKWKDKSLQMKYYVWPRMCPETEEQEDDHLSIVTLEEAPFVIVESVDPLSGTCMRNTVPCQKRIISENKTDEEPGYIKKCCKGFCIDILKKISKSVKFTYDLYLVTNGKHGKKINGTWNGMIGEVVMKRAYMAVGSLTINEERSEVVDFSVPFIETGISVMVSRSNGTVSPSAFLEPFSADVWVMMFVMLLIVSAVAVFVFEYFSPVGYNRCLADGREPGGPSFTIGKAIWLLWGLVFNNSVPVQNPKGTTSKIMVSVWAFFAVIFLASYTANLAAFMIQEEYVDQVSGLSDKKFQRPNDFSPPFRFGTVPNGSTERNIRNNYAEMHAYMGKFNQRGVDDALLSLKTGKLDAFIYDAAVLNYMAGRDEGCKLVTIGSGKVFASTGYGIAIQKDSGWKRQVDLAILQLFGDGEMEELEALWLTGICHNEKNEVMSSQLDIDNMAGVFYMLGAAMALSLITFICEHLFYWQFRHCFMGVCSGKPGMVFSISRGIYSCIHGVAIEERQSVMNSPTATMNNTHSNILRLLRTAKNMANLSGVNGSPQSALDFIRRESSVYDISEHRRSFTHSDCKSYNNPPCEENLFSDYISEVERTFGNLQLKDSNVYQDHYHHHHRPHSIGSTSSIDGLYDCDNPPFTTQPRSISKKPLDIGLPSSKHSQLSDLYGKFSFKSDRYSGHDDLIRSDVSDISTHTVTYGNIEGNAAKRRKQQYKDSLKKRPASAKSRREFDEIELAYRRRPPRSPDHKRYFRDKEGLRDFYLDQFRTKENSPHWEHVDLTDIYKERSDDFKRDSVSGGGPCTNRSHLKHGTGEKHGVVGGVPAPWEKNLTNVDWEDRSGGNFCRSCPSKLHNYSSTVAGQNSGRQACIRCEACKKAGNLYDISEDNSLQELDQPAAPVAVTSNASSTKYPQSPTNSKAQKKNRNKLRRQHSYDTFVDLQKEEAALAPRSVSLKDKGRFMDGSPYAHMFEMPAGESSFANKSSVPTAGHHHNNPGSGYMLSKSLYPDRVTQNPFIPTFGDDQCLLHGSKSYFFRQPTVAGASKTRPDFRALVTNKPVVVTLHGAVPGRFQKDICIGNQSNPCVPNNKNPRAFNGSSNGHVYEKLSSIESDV
Outline: as §1

Compound: CCOC(=O)C(F)(F)CC(=O)N1N=C(c2c(-c3cccc(F)c3)c3ccccc3[nH]c2=O)CC1c1ccc(Cl)cc1 (stereo not shown) [997-65, Ethyl 4-{5-(4-chlorophenyl)-3-[4-(3-fluorophenyl)-2-oxo-1,2-dihydroquinolin-3-yl]-4,5-dihydro-1H-pyrazol-1-yl}-2,2-difluoro-4-oxobutanoate]
GluN2D IC50 [1]: NE (NE indicates less than 50% inhibition at 30 μM.) | GluN2A IC50 [2]: NE (NE indicates less than 50% inhibition at 30 μM.) | GluN2C IC50 [3]: NE (NE indicates less than 50% inhibition at 30 μM.) | activity at all receptors (GluN2A to GluN2D), in words [4]: no inhibition | GluN2B IC50 [5]: NE (NE indicates less than 50% inhibition at 30 μM.)

Compound: CCOC(=O)C(F)(F)CC(=O)N1N=C(c2c(-c3ccc(Cl)cc3)c3ccccc3[nH]c2=O)CC1c1ccc(Cl)cc1 (stereo not shown) [997-66, Ethyl 4-{5-(4-chlorophenyl)-3-[4-(4-chlorophenyl)-2-oxo-1,2-dihydroquinolin-3-yl]-4,5-dihydro-1H-pyrazol-1-yl}-2,2-difluoro-4-oxobutanoate]
GluN2D IC50 [1]: NE (NE indicates less than 50% inhibition at 30 μM.) | GluN2A IC50 [2]: NE (NE indicates less than 50% inhibition at 30 μM.) | GluN2C IC50 [3]: NE (NE indicates less than 50% inhibition at 30 μM.) | activity at all receptors (GluN2A to GluN2D), in words [4]: no inhibition | GluN2B IC50 [5]: NE (NE indicates less than 50% inhibition at 30 μM.)

Compound: O=c1[nH]c2ccccc2c(-c2ccc(Cl)cc2)c1C1=NNC(c2ccc(Cl)cc2)C1 (stereo not shown) [997-70, 4-(4-chlorophenyl)-3-[5-(4-chlorophenyl)-4,5-dihydro-1H-pyrazol-3-yl]quinolin-2(1H)-one]
GluN2D IC50 [1]: NE (NE indicates less than 50% inhibition at 30 μM.) | GluN2A IC50 [2]: NE (NE indicates less than 50% inhibition at 30 μM.) | GluN2C IC50 [3]: NE (NE indicates less than 50% inhibition at 30 μM.) | activity at all receptors (GluN2A to GluN2D), in words [4]: inactive | GluN2B IC50 [5]: NE (NE indicates less than 50% inhibition at 30 μM.)

Compound: O=C(/C=C/c1ccc(Cl)cc1)c1c(-c2cccc(F)c2)c2ccccc2[nH]c1=O [997-71, (E)-3-[3-(4-chlorophenyl)acryloyl]-4-(3-fluorophenyl)quinolin-2(1H)-one]
GluN2D IC50 [1]: NE (NE indicates less than 50% inhibition at 30 μM.) | GluN2A IC50 [2]: NE (NE indicates less than 50% inhibition at 30 μM.) | GluN2C IC50 [3]: NE (NE indicates less than 50% inhibition at 30 μM.) | activity at all receptors (GluN2A to GluN2D), in words [4]: inactive | GluN2B IC50 [5]: NE (NE indicates less than 50% inhibition at 30 μM.)

Compound: Cc1c(C2=NN(C(=O)CCC(=O)O)C(c3ccc(Cl)cc3)C2)c(=O)[nH]c2ccccc12 (stereo not shown) [997-76, 4-(5-(4-chlorophenyl)-3-(4-methyl-2-oxo-1,2-dihydroquinolin-3-yl)-4,5-dihydro-1H-pyrazol-1-yl)-4-oxobutanoic acid]
GluN2D IC50 [1]: NE (NE indicates less than 50% inhibition at 30 μM.) | GluN2A IC50 [2]: NE (NE indicates less than 50% inhibition at 30 μM.) | GluN2C IC50 [3]: NE (NE indicates less than 50% inhibition at 30 μM.) | activity at all receptors (GluN2A to GluN2D), in words [4]: inactive | GluN2B IC50 [5]: NE (NE indicates less than 50% inhibition at 30 μM.)

Compound: O=C(O)CCC(=O)N1N=C(c2c(-c3ccc(Cl)cc3)c3ccccc3[nH]c2=O)CC1c1ccncc1 (stereo not shown) [997-79, 4-(3-(4-(4-chlorophenyl)-2-oxo-1,2-dihydroquinolin-3-yl)-5-(pyridin-4-yl)-4,5-dihydro-1H-pyrazol-1-yl)-4-oxobutanoic acid]
GluN2D IC50 [1]: NE (NE indicates less than 50% inhibition at 30 μM.) | GluN2A IC50 [2]: NE (NE indicates less than 50% inhibition at 30 μM.) | GluN2C IC50 [3]: NE (NE indicates less than 50% inhibition at 30 μM.) | activity at all receptors (GluN2A to GluN2D), in words [4]: inactive | GluN2B IC50 [5]: NE (NE indicates less than 50% inhibition at 30 μM.)

Compound: O=C(O)CCC(=O)N1N=C(c2c(-c3ccc(Cl)cc3)c3ccccc3[nH]c2=O)CC1c1cnccn1 (stereo not shown) [997-80, 4-(3-(4-(4-chlorophenyl)-2-oxo-1,2-dihydroquinolin-3-yl)-5-(pyrazin-2-yl)-4,5-dihydro-1H-pyrazol-1-yl)-4-oxobutanoic acid]
GluN2D IC50 [1]: NE (NE indicates less than 50% inhibition at 30 μM.) | GluN2A IC50 [2]: NE (NE indicates less than 50% inhibition at 30 μM.) | GluN2C IC50 [3]: NE (NE indicates less than 50% inhibition at 30 μM.) | activity at all receptors (GluN2A to GluN2D), in words [4]: inactive | GluN2B IC50 [5]: NE (NE indicates less than 50% inhibition at 30 μM.)

Compound: O=C(O)CCC(=O)N1N=C(c2c(-c3ccc(Cl)cc3)c3ccccc3[nH]c2=O)CC1c1cccnc1 (stereo not shown) [997-83, 4-(3-(4-(4-chlorophenyl)-2-oxo-1,2-dihydroquinolin-3-yl)-5-(pyridin-3-yl)-4,5-dihydro-1H-pyrazol-1-yl)-4-oxobutanoic acid]
GluN2D IC50 [1]: NE (NE indicates less than 50% inhibition at 30 μM.) | GluN2A IC50 [2]: NE (NE indicates less than 50% inhibition at 30 μM.) | GluN2C IC50 [3]: NE (NE indicates less than 50% inhibition at 30 μM.) | activity at all receptors (GluN2A to GluN2D), in words [4]: inactive | GluN2B IC50 [5]: NE (NE indicates less than 50% inhibition at 30 μM.)

Compound: O=C(O)CCC(=O)N1N=C(c2c(-c3ccc(Cl)cc3)c3ccccc3[nH]c2=O)CC1c1ccncc1Cl (stereo not shown) [997-88, 4-(3-(4-(4-chlorophenyl)-2-oxo-1,2-dihydroquinolin-3-yl)-5-(3-chloropyridin-4-yl)-4,5-dihydro-1H-pyrazol-1-yl)-4-oxobutanoic acid]
GluN2D IC50 [1]: NE (NE indicates less than 50% inhibition at 30 μM.) | GluN2A IC50 [2]: NE (NE indicates less than 50% inhibition at 30 μM.) | GluN2C IC50 [3]: NE (NE indicates less than 50% inhibition at 30 μM.) | activity at all receptors (GluN2A to GluN2D), in words [4]: inactive | GluN2B IC50 [5]: NE (NE indicates less than 50% inhibition at 30 μM.)

activity at all receptors (GluN2A to GluN2D), in words [4]: lost the activity
Compound: O=C(O)CC(F)(F)C(=O)N1N=C(c2ccccc2-c2cccc(F)c2)CC1c1ccc(Cl)cc1 (stereo not shown) [997-100, 4-(5-(4-chlorophenyl)-3-(3′-fluoro-[1,1′-biphenyl]-2-yl)-4,5-dihydro-1H-pyrazol-1-yl)-3,3-difluoro-4-oxobutanoic acid]
GluN2D IC50 [1]: NE (NE indicates less than 50% inhibition at 30 μM.) | GluN2A IC50 [2]: NE (NE indicates less than 50% inhibition at 30 μM.) | GluN2C IC50 [3]: NE (NE indicates less than 50% inhibition at 30 μM.) | GluN2B IC50 [5]: NE (NE indicates less than 50% inhibition at 30 μM.)

Compound: O=C(O)CC(F)(F)C(=O)N1N=C(c2ccccc2-c2ccc(Cl)cc2)CC1c1cccc2c1OCO2 (stereo not shown) [997-119, 4-(5-(benzo[d][1,3]dioxol-4-yl)-3-(4′-chloro-[1,1′-biphenyl]-2-yl)-4,5-dihydro-1H-pyrazol-1-yl)-3,3-difluoro-4-oxobutanoic acid]
GluN2D IC50 [1]: NE (NE indicates less than 50% inhibition at 30 μM.) | GluN2A IC50 [2]: NE (NE indicates less than 50% inhibition at 30 μM.) | GluN2C IC50 [3]: NE (NE indicates less than 50% inhibition at 30 μM.) | activity at all receptors (GluN2A to GluN2D), in words [4]: inactive | GluN2B IC50 [5]: NE (NE indicates less than 50% inhibition at 30 μM.)
